# Data: publication PMC6934184, “Selective DNA-PKcs inhibition extends the therapeutic index of localized radiotherapy and chemotherapy” (The Journal of Clinical Investigation, 2019)
# Target: T1, CDK2/cyclin E1 (Homo sapiens, UniProt P24941)
# T1 construct: purchased Thermo Fisher Scientific (Life Technologies) SelectScreen
# Experiment: SelectScreen LanthaScreen
# Type: binding
# Details: 1 µM
# Summary of the method: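 Percent values come from Thermo SelectScreen profiling of NU5455, combining activity and binding assays. CSF1R was run in Z'LYTE format at Km app ATP, and CAMK1 in Adapta format with ATP listed at 10.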
structure (smiles),measurement,value
CN(C(=O)CN1CCOCC1)c1ccc2sc3c(-c4cccc5c(=O)cc(N6CC7CCC(C6)O7)oc45)cccc3c2c1 [NU5455],% displacement,2.7%
